The values below come from patent publication US20230160909A1, “NOVEL ION CONDUCTING CHANNEL FUSION SUBUNITS AND METHODS OF USE THEREOF” (UNIVERSITE DE BORDEAUX, priority 2020, published 2023).

What all share (type): cell-based
Assay [1] has as its target T1, TRPV1 ion channel (Homo sapiens, UniProt Q8NER1).
T1 construct: expressed in transfected cells; host or cells: HEK293T
Kind of assay: mNeonGreen-Calflux-nLuc-hTRPV1 BRET biosensor in HEK293T cells. To be noted: for inhibition of CAPS-induced BRET increase: FIG. 8C/8E.

The target of assay [2] is T2, TRPV4 (Homo sapiens, UniProt Q9HBA0).
T2 construct: expressed in transfected cells; host or cells: HEK293T
The assay can be described thus: mNeonGreen-Calflux-nLuc-hTRPV4 BRET probe in HEK293T cells. The method, then: (§1) B) Dose response curve of the TRPM8 agonist WS12 to trigger activation of the mNeon-Calflux-nLuc-hTRPM8 BRET probe transiently expressed in HEK293T cells that were pre-treated or not with 10 μM of the TRPM8 antagonist M8B hydrochloride. C) Dose response curve of the PIEZO1 agonist YODA1 to trigger activation of the mNeon-Calflux-nLuc-PIEZO1 BRET probe transiently expressed in HEK293T cells. Data represent the average of at least three independent experiments.
(§2) As described above in Examples 7 and 8, the intramolecular BRET biosensor probes hTRPM8-nLuc-Calflux-mGreen and hTRPV4-nLuc-Calflux-mGreen have been prepared wherein the DNA sequence encoding the human protein TRPM8 is fused in C-terminal to a calflux-based calcium BRET sensor, said sensor being sandwiched between the nano luciferase and mNeonGreen. In an effort to exemplify and validate the concept of Calcium sensor-based BRET probes fused to other ion channels, we first assessed whether the activity of two other TRPs ion channels, TRPV4 and TRPM8, could also be measured using such BRET probes. […] The measured half-maximal responses were consistent with those reported in the literature using patch-clamp or calcium-flux measurements on cells transiently expressing TRPV4 or TRPM8.
(In BRET a luciferase serves as donor, and the signal depends on an acceptor being close.)

For assay [3], the target named is T3, NaV1.8 (Homo sapiens, UniProt Q9Y5Y9).
T3 construct: expressed in transfected cells; host or cells: HEK293T
Kind of assay: mNeon-SOFI-nLuc-NaV1.8 BRET probe in HEK293T cells. To be noted: FIG. 10C. An excerpt: (§3) B) Kinetic measurement of the effect of KCl injection on the BRET measured from HEK293T cells transiently expressing mNeon-Calflux-nLuc-KiR6.1 BRET probe. C) Kinetic measurement of the effect of Deltamethrine injection on the BRET measured from HEK293T cells transiently expressing mNeon-SOFI-nLuc-NaV1.8 BRET probe.
(§4) TREK1 BRET probe was activated using the chemical activator BL1249. Kir6.1 BRET probe was activated using KCl. Following depolarization, a strong outward potassium current is known to occur in HEK293T cells. Extracellular potassium ions would therefore be expected to re-enter the cells through ectopically-expressed inward rectifying ion channels such as KiR6.1, thereby increasing the local concentration of potassium in the intracellular vicinity of the KiR ion channel. NaV1.8 was activated in the presence of Deltamethrin, a pyrethroid toxin that is known to prolong the open state of tetrodotoxin-resistant sodium channels. […] While surprising, this observation could nonetheless be explained knowing that TREK1 trigger hyperpolarisation of the cell membrane by allowing potassium to leak outside cells, thus lowering the intracellular potassium concentration which will tend to balance with the extracellular potassium concentration. In that conditions, it has been shown that potassium will inwardly flow through TREK1 opened pore, which is in line with our observations.

The target of assay [4] is T4, PIEZO1 channel (Homo sapiens, UniProt Q92508).
T4 construct: expressed in transfected cells; host or cells: HEK293T
The assay can be described thus: mNeonGreen-Calflux-nLuc-PIEZO1 BRET probe in HEK293T cells. To be noted: FIG. 9C. The method, then:
as §1
This confirms the functionality of our calcium sensor-based BRET Probe targeting PIEZO1.

In assay [5] the target is T5, KiR6.1 (Homo sapiens, UniProt Q15842).
T5 construct: expressed in transfected cells; host or cells: HEK293T
T5 sequence (Q15842 1-424): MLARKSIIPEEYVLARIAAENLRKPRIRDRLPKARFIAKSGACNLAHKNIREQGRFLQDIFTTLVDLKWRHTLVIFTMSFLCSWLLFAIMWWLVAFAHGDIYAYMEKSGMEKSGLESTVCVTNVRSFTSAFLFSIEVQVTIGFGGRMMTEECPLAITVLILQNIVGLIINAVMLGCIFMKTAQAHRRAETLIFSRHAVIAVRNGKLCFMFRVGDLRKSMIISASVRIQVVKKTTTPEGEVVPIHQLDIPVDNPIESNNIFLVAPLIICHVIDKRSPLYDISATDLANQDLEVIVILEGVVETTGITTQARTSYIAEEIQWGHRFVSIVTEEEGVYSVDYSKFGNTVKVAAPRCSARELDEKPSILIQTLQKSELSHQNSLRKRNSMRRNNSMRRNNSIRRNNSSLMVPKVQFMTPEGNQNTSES
Kind of assay: mNeon-KBP-nLuc-KiR6.1 BRET probe in HEK293T cells. As to conditions: KCl depolarisation, FIG. 10B.
Text: […] C) Kinetic measurement of the effect of Deltamethrine injection on the BRET measured from HEK293T cells transiently expressing mNeon-SOFI-nLuc-NaV1.8 BRET probe.
as §4

Assay [6] concerns the target T6, NR1 subunit (Homo sapiens, UniProt Q05586).
T6 construct: expressed in transfected cells; host or cells: HEK293T
The assay can be described thus: NR1-nLuc-Calflux-YFP BRET probe expressed alone in HEK293T cells. To be noted: increasing dose, FIG. 7A. The text has this: (§5) FIG. 7: Dose-response for NMDA as measured in HEK293T cells transiently expressing the NR1-nLuc-Calflux-YFP probe alone (A) or coexpressed with NR2A (B) or NR2B (C) subunits.
(§6) We have constructed a novel BRET probe allowing to measure the activity of NMDA receptors by coupling the cDNA of the NR1 subunit to the BRET sensor nLuc-Calflux-YFP (FIG. 7). NMDA receptors are heterotetramers comprising 2 NR1 subunits and 2 NR2 or NR3 subunits. The subunits NR1, NR2 or NR3 expressed separately cannot form functional receptors.

The target in assay [7] is T7, NR1-nLuc-Calflux-YFP/NR2B ion channels (NMDA receptors) (Homo sapiens, UniProt Q05586+Q13224).
T7 construct: expressed in transfected cells; host or cells: HEK293T
Kind of assay: NR1-nLuc-Calflux-YFP BRET probe coexpressed with NR2B in HEK293T cells. As to conditions: read-out: EC50 of activation of NR1-nLuc-Calflux-YFP/NR2B.
Text: as §5, §6

Assay [8] concerns the target T8, TRPM8 (Homo sapiens, UniProt Q7Z2W7).
T8 construct: expressed in transfected cells; host or cells: HEK293T
The assay can be described thus: mNeonGreen-Calflux-nLuc-hTRPM8 BRET probe in HEK293T cells. The protocol: as §1, §2

Assay [9] has as its target T9, TRPV1 channel (Homo sapiens, UniProt Q8NER1).
T9 construct: expressed in transfected cells; host or cells: HEK293T
The assay can be described thus: hTRPV1-nLuc-Calflux-YFP (or mNeonGreen) BRET probe in HEK293T cells.

For assay [10], the system named is potassium channel SK3 (KCa2.3). Kind of assay: SK3-nLuc-KBP-mNeonGreen BRET probe in HEK293T cells. As to conditions: different concentrations, FIG. 5B. The text has this:
FIG. 5: is a schematic representation of the SK3-nLuc-KBP-mNeonGreen probe (A) and the measure of BRET signal as obtained during the activation of the channel in presence of lonomycine (B).
The novel BRET probe has been constructed to measure the activity of potassium channel SK3 (KCa2.3) by coupling the cDNA of the SK3 channel to a potassium sensor (protein KBP, Ashrafet KU al., 2016, Structure 24, 741-749) sandwiched in between luciferase and mNeonGreen (SK3-nLuc-KBP-mNeonGreen, See FIG. 5A).
The BRET sensor is based on KBP which has been published (Bischof H et al, 2017, Nat Commun. 8(1):1422), but this sensor was never coupled to a channel in order to specifically measure the activity of the channel as presented in this invention.

The target in assay [11] is T10, TREK1 (Homo sapiens, UniProt O95069).
T10 construct: expressed in transfected cells; host or cells: HEK293T
T10 sequence (O95069 1-426): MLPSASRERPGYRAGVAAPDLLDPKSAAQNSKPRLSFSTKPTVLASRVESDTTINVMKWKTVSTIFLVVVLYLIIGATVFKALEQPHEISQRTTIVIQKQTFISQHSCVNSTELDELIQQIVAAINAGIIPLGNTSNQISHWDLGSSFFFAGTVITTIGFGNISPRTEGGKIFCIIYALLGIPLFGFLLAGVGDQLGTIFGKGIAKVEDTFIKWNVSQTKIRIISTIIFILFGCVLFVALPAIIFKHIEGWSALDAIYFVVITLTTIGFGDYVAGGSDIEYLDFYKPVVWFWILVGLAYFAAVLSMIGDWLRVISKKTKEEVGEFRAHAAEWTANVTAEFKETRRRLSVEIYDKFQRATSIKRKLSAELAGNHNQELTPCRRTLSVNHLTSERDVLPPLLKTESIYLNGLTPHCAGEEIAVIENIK
Kind of assay: mNeon-KBP-nLuc-TREK1 BRET probe in HEK293T cells. As to conditions: repeated activation with increasing quantities, FIG. 10A.
Text: as §3, §4

[12] abbreviates: HEK293T cells pre-treated with 10 μM antagonist.

T1 sequence (Q8NER1 whole entry): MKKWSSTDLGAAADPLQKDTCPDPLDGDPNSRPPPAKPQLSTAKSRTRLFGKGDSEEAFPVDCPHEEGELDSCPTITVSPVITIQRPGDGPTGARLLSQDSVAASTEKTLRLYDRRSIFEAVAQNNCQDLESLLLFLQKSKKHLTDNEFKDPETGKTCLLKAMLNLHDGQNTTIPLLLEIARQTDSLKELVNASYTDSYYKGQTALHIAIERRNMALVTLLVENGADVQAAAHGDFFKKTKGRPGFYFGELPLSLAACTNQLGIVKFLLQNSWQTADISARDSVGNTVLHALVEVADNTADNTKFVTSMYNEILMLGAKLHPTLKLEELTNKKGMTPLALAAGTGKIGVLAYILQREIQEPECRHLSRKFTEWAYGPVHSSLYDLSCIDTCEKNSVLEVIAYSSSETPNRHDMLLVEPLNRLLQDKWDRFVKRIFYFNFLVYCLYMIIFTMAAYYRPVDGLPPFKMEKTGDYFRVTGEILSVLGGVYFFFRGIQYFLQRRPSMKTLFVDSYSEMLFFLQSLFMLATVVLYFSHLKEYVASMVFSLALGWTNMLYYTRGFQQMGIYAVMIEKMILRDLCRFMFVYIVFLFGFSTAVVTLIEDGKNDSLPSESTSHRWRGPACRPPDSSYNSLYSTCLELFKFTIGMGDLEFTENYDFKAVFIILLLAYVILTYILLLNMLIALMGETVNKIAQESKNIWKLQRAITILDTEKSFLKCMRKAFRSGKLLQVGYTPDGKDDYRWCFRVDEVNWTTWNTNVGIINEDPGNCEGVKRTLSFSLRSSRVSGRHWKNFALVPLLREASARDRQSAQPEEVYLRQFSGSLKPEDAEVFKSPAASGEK
T8 sequence (Q7Z2W7 whole entry): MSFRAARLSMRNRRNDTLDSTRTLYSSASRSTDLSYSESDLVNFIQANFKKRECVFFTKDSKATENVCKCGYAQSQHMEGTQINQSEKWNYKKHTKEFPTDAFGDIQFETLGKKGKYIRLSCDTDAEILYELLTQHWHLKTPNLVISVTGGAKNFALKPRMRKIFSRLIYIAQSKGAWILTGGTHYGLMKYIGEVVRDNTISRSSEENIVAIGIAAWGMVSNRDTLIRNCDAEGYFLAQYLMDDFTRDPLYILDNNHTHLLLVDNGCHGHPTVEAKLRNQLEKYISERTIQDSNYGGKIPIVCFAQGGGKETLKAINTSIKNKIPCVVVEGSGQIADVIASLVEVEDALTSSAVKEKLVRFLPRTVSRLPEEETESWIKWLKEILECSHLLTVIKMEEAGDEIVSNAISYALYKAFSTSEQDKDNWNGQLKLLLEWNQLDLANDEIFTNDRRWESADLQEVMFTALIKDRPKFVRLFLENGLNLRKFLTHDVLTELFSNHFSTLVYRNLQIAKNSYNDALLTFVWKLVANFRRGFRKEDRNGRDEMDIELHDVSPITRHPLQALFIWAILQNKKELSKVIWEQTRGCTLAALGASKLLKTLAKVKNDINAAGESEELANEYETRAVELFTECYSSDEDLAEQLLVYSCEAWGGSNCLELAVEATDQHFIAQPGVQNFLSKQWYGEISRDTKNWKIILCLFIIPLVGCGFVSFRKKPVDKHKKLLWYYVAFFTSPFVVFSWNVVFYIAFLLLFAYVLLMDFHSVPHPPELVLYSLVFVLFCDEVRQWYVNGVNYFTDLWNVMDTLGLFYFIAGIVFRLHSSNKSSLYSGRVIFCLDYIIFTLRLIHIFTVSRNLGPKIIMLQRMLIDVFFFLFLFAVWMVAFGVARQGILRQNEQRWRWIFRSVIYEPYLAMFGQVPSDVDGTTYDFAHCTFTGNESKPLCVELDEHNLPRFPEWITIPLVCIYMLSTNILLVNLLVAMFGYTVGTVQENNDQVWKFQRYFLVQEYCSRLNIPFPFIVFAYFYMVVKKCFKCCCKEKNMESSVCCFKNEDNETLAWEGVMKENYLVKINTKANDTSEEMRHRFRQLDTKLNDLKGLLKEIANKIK
T2 sequence (Q9HBA0 whole entry): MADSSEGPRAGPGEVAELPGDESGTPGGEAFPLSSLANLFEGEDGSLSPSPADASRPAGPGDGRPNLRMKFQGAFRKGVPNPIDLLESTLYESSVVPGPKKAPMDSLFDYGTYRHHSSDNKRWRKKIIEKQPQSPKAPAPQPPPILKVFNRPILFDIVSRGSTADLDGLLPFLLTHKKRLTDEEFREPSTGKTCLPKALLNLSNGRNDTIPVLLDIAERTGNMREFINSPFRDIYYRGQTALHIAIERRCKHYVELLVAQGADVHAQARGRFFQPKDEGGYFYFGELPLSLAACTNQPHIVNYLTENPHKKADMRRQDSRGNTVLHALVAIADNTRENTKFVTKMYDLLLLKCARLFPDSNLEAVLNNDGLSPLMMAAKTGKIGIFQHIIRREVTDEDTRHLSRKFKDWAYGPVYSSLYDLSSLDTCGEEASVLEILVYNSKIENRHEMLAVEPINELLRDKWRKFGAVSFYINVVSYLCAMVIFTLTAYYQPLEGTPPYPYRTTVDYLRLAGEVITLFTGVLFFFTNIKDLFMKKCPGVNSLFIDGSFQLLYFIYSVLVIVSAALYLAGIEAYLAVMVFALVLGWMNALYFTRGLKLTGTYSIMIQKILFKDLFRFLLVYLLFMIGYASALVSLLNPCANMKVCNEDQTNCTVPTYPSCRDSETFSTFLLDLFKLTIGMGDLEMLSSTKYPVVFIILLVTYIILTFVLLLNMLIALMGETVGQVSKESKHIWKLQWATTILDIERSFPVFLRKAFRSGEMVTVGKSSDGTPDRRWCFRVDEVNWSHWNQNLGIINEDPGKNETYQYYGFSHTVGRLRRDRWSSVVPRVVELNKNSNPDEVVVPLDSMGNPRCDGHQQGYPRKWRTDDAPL
T9 sequence (Q8NER1 whole entry): as the sequence (Q8NER1 whole entry) above
T3 sequence (Q9Y5Y9 whole entry): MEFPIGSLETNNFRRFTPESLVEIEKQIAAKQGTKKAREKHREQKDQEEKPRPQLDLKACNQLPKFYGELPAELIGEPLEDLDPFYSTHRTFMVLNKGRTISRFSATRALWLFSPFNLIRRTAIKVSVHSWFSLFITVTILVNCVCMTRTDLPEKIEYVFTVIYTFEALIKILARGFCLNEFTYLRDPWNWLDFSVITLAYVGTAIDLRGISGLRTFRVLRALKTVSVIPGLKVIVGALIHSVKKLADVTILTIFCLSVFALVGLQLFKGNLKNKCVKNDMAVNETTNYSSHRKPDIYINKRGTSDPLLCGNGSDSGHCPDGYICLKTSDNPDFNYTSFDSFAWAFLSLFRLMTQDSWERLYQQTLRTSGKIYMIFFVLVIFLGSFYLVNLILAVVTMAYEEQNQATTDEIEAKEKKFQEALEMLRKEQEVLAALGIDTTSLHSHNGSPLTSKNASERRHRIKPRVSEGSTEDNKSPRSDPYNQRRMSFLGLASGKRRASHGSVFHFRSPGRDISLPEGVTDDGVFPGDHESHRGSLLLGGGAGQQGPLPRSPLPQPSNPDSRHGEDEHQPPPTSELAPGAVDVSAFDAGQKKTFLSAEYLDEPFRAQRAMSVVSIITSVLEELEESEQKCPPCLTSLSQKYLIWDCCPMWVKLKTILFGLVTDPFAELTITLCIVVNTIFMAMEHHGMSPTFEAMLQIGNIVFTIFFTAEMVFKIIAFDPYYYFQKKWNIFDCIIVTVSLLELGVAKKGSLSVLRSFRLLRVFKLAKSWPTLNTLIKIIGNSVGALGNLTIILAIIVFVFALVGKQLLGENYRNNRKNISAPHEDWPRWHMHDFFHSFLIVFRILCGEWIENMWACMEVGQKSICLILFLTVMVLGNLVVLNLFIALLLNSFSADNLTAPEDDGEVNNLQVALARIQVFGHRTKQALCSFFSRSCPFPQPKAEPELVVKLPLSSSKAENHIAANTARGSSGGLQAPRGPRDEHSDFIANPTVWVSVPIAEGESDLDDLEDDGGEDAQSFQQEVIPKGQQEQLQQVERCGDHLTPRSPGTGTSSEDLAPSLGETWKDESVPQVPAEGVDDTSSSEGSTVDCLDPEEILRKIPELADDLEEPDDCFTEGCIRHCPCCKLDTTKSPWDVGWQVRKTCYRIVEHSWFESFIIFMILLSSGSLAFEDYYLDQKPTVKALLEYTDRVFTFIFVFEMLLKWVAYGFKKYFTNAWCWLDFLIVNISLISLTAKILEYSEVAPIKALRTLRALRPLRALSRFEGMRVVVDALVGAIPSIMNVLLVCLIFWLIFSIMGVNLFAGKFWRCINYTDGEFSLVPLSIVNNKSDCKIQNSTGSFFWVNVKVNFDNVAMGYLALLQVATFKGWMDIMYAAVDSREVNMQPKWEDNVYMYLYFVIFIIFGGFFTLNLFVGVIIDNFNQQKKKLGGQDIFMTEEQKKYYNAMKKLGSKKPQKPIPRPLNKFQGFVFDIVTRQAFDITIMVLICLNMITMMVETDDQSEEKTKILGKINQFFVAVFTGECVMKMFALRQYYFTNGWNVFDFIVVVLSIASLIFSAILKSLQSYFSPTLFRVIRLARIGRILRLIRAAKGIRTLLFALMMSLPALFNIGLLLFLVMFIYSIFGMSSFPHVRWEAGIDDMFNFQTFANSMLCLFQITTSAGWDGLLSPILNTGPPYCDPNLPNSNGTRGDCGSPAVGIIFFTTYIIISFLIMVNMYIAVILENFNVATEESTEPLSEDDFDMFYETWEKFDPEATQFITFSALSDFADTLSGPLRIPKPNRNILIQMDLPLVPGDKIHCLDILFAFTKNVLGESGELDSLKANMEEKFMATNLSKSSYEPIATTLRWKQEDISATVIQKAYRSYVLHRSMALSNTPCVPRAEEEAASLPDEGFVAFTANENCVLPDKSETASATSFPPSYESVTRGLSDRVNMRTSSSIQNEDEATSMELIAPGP

Consider `CC(C)NCCN(C(C)C)S(=O)(=O)c1ccc(Cl)cc1Cl` [RN1734], for which the “inhibition of CAPS-induced BRET increase” value in assay [1] is reported as “failed to inhibit”. With `CC(C)C[C@H](NC(=O)c1cc2ccccc2s1)C(=O)N1CCN(C(=O)[C@H](CO)NS(=O)(=O)c2ccc(Cl)cc2Cl)CC1` [GSK1016790A], in assay [2] (HEK293T cells, FIG. 9A), the “change of BRET signal by agonist” value is reported as “dose-dependently increased”. With `CC1(C)[C@H](C(=O)O[C@H](C#N)c2cccc(Oc3ccccc3)c2)[C@@H]1C=C(Br)Br` [Deltamethrin], in assay [3], the “change of BRET signal” value is on record as “decrease of the BRET signal”.

With `Clc1cccc(Cl)c1CSc1nnc(-c2cnccn2)s1` [YODA1], in assay [4], the “change of BRET signal by agonist” value is listed as “dose-dependently increased”. Consider `[Cl-].[K+]` [KCl], for which the “change of BRET signal” value in [5] was “increase of the BRET signal”. Take `COc1cc(CNC(=O)CCCC/C=C/C(C)C)ccc1O` [CAPS, Capsaïcin]: in assay [1] (kinetic measurement, FIG. 8A), the “change of basal BRET after exposure” value is recorded as “dramatically increased with first-order kinetics”.

For the molecule `CN[C@H](CC(=O)O)C(=O)O` [NMDA, N-methyl-D-aspartate], the “modulation of BRET signal, NR1 probe alone” value in assay [6] is on record as “not modulated”. Moreover, the EC50 in [7] is 12.3 µM.

Regarding `COc1cc(CN(CCN)C(=O)c2cccs2)ccc1OCc1ccccc1.Cl` [MBB], the “effect on agonist (WS12) potency” value in assay [8] (setting [12]) was “right-shifted the corresponding agonist potency to higher values”. With `C[C@H](CCC(=O)O)C[C@H](C)C[C@H](C)C(=O)/C=C(\O)[C@H](C)C[C@H](C)C/C=C/[C@@H](C)[C@@H](O)[C@@H](C)[C@@H](O)C[C@@H]1CC[C@@](C)([C@H]2CC[C@@](C)([C@@H](C)O)O2)O1` [ionomycin], in assay [9] (TRPV1-nLuc-Calflux-YFP/mNeonGreen probe), the “change of BRET signal on stimulation” value is on record as “marginal increase”. For the same molecule, the “change of BRET signal (potassium efflux)” value in assay [10] is given as “decrease of the BRET signal”. For the molecule `CC(=O)Nc1nc2c(Oc3cc(-c4ccc(C(F)(F)F)cc4)ncn3)cccc2s1` [AMG517], the “effect on dose-response to CAPS (antagonism)” value in [9] (FIG. 4A) was “shifted the dose-response to CAPS to the right”. Besides, the “inhibition of CAPS-induced BRET increase” value in assay [1] is recorded as “inhibited the CAPS-induced BRET increase”.

Consider `c1ccc(-c2nn[nH]n2)c(Nc2cccc3c2CCCC3)c1` [BL1249], for which the “change of basal BRET” value in assay [11] was “dose-dependently increased the basal BRET”. Regarding `COc1ccc(NC(=O)[C@@H]2C[C@H](C)CC[C@H]2C(C)C)cc1` [WS12], in [8] (HEK293T cells, FIG. 9B), the “change of BRET signal by agonist” value is given as “dose-dependently increased”. Take `Cc1c(C(=O)Nc2cccc(C(F)(F)F)c2)cc(-c2ccccc2)n1CCCN1CCOCC1` [HC060747]: the “effect on agonist (GSK1016790A) potency” value in assay [2] (setting [12]) is “right-shifted the corresponding agonist potency to higher values”.
